From ChEMBL document CHEMBL1124713, “Synthesis of N-[N-(4-deoxy-4-amino-10-methylpteroyl)-4-fluoroglutamyl]- gamma-glutamate, an unusual substrate for folylpoly-gamma-glutamate synthetase and gamma-glutamyl hydrolase” (J Med Chem, 1990) come the findings set out here.

The Km is the concentration of substrate that gives half-maximal velocity.

Holding throughout (assay type): ADME
Data set [1] concerns FPGS (folylpolyglutamate synthetase). Briefly: Kinetic constant(Km) was determined in FPGS-catalyzed reaction.
Data set [2] can be described thus: Ratio of relative Vmax to Km was determined.
The nature of data set [3]: Kinetic constant relative(Vmax) was determined in FPGS-catalyzed reaction.

For `CN(Cc1cnc2nc(N)nc(N)c2n1)c1ccc(C(=O)NC(CC(F)C(=O)NC(CCC(=O)O)C(=O)O)C(=O)O)cc1` (centres undefined), the Km in data set [1] stood at 100 µM. In addition, the Ratio in data set [2] worked out at 0.0023. The “Relative Vmax” value in data set [3] worked out at 0.23.

As to `CN(Cc1cnc2nc(N)nc(N)c2n1)c1ccc(C(=O)NC(CCC(=O)NC(CCC(=O)O)C(=O)O)C(=O)O)cc1` (centres undefined), the Km in data set [1] was 38 µM. For the same molecule, the Ratio in data set [2] is on record as 0.012. Also, the “Relative Vmax” value in data set [3] is 0.45.

Regarding `CN(Cc1cnc2nc(N)nc(N)c2n1)c1ccc(C(=O)N[C@@H](CCC(=O)O)C(=O)O)cc1` [METHOTREXATE], the Km in data set [1] came out at 42 µM. In addition, in data set [2], the Ratio was 0.024. The “Relative Vmax” value in data set [3] is 1.
